Experimental data published in publication PMC7274154, “Identification and Characterization of GPCRs for Pyrokinin and CAPA Peptides in the Brown Marmorated Stink Bug, Halyomorpha halys (Hemiptera: Pentatomidae)” (Frontiers in Physiology, 2020).
pEC50: −log10 of the molar value. Entries after “also recorded” stand apart in the source; their conditions may differ. Where no end group is shown, it is not given here.

Key:
Type in all cases: cell-based, Halyomorpha halys
HalhaPK-R1b [1] = assay: Concentration-response, calcium mobilization (FLIPR Calcium 6) in Sf9 cells expressing HalhaPK-R1b; conditions: for pEC50: HalhaPK-R1b in Sf9 cells, intracellular calcium, FLIPR Calcium 6 fluorescence, at least three independent experiments, read-out: Half-maximum effective concentration (EC50)
Method: (§1) Five micrograms of each purified pIB/HalhaPK-R (or CAPA-R) plasmid and 15 μL of Cellfectin II reagent (Thermo Fisher Scientific) were diluted into 500 μL of serum free Insectagro Sf9 medium (Corning, Corning, NY, United States) and allowed to incubate for 10 min at room temperature, after which they were mixed together and allowed to incubate for an additional 15–20 min. Each pIB/HalhaPK-R (or CAPA-R) Cellfectin mixture was then added to T-25 cell culture flasks containing Sf9 cells at 50% confluency and incubated overnight at 28°C. The following morning the media was removed from each flask and replaced with media containing 20 μg/mL blasticidin (Corning). Each transfected cell line was cultured in the presence of 20 μg/mL blasticidin for ∼3 weeks until a blasticidin-resistant cell line was established, after which the blasticidin concentration was reduced to 10 μg/mL and the cell lines were frozen prior to testing in functional assays.
(§2) Peptides encoded by H. halys pyrokinin and capa genes used in this study have been recently identified ([Ahn and Choi, 2018]). Four peptides (>95% purity): PK2 (FYAPFSPRLa), CAPA-PVK1 ([…]a), CAPA-PVK2 (EQLIPFPRVa), and CAPA-DH (= PK1-like, […]a) were synthesized to contain an amide group on their C-termini (Peptide 2.0 Inc., Chantilly, VA, United States). Peptides were solubilized in water, aliquoted into 2–20 nM working stocks, dried using a DNA120 SpeedVac Concentrator (Thermo Scientific), and frozen at –20°C until use in binding assays.
(§3) For each cell line expressing a specific H. halys PRXamide receptor, cells were thawed and cultured for at least three passages in a suspension culture containing blasticidin prior to functional assays. The transfected cell lines were grown as 20 mL suspension cultures in 50 mL-Erlenmeyer flasks with a screw cap, and shaken at 145 rpm at 28°C. For functional assays, cells were taken from a suspension culture in the exponential growth phase, and ∼50,000 cells were plated into each well of a tissue culture-treated, black-walled, 96-well plate (Corning). The plated cells were then incubated at 28°C for 48 h, after which the media was removed from the plates and the wells were rinsed with serum-free media, then loaded with 95 μL of 1X FLIPR Calcium 6 assay reagent (Molecular Devices, Sunnyvale, CA, United States). Plates were incubated at room temperature for 60 min then transferred to a FlexStation 3 Multi-Mode Microplate Reader (Molecular Devices) to measure cell fluorescence intensity from intracellular calcium influx after peptide-induced receptor activation. Wells of cells were then treated with 5 μL of water or 20X concentrations of each peptide using the automated injection system of the FlexStation plate reader. In all experiments, fluorescence was measured every 5 s for 30 s prior to treatment and for 2 min after exposure. In all cases, the maximum response obtained occurred ∼20 s after exposure to ligand. The mean response of four wells receiving the same treatment was calculated and expressed as a change in fluorescence from baseline (prior to treatment) to maximum response. For initial screening, each cell line was exposed to a single concentration of 500 nM of each peptide or control. Compounds that elicited responses were tested further in concentration-response experiments. […]

HalhaPK-R1a [2] = assay: Concentration-response, calcium mobilization (FLIPR Calcium 6) in Sf9 cells expressing HalhaPK-R1a; conditions: for pEC50: HalhaPK-R1a in Sf9 cells, intracellular calcium, FLIPR Calcium 6 fluorescence, at least three independent experiments, read-out: Half-maximum effective concentration (EC50)
Method: as §1, §2, §3

HalhaPK-R2 [3] = assay: Concentration-response, calcium mobilization (FLIPR Calcium 6) in Sf9 cells expressing HalhaPK-R2; conditions: for pEC50: HalhaPK-R2 in Sf9 cells, intracellular calcium, FLIPR Calcium 6 fluorescence, at least three independent experiments, read-out: Half-maximum effective concentration (EC50); for Response in functional assay (words): HalhaPK-R2, Sf9 cells, concentration-response
Method: as §1, §2
(§4) For each cell line expressing a specific H. halys PRXamide receptor, cells were thawed and cultured for at least three passages in a suspension culture containing blasticidin prior to functional assays. The transfected cell lines were grown as 20 mL suspension cultures in 50 mL-Erlenmeyer flasks with a screw cap, and shaken at 145 rpm at 28°C. For functional assays, cells were taken from a suspension culture in the exponential growth phase, and ∼50,000 cells were plated into each well of a tissue culture-treated, black-walled, 96-well plate (Corning). The plated cells were then incubated at 28°C for 48 h, after which the media was removed from the plates and the wells were rinsed with serum-free media, then loaded with 95 μL of 1X FLIPR Calcium 6 assay reagent (Molecular Devices, Sunnyvale, CA, United States). Plates were incubated at room temperature for 60 min then transferred to a FlexStation 3 Multi-Mode Microplate Reader (Molecular Devices) to measure cell fluorescence intensity from intracellular calcium influx after peptide-induced receptor activation. Wells of cells were then treated with 5 μL of water or 20X concentrations of each peptide using the automated injection system of the FlexStation plate reader. In all experiments, fluorescence was measured every 5 s for 30 s prior to treatment and for 2 min after exposure. In all cases, the maximum response obtained occurred ∼20 s after exposure to ligand. The mean response of four wells receiving the same treatment was calculated and expressed as a change in fluorescence from baseline (prior to treatment) to maximum response. For initial screening, each cell line was exposed to a single concentration of 500 nM of each peptide or control. Compounds that elicited responses were tested further in concentration-response experiments. Concentration-response curves and EC50 values were generated using the variable slope, four parameter non-linear regression function of GraphPad Prism data analysis (GraphPad Software, Inc., San Diego, CA, United States). Each cell line was tested for its response to peptides in at least three independent experiments.

HalhaPK-R3a [4] = assay: Concentration-response, calcium mobilization (FLIPR Calcium 6) in Sf9 cells expressing HalhaPK-R3a; conditions: for pEC50: HalhaPK-R3a in Sf9 cells, intracellular calcium, FLIPR Calcium 6 fluorescence, at least three independent experiments, read-out: Half-maximum effective concentration (EC50); for Response in functional assay (words): HalhaPK-R3a, Sf9 cells, concentration-response
Method: as §1, §2, §4

HalhaCAPA-R = assay: Concentration-response, calcium mobilization (FLIPR Calcium 6) in Sf9 cells expressing HalhaCAPA-R; conditions: for pEC50: HalhaCAPA-R in Sf9 cells, intracellular calcium, FLIPR Calcium 6 fluorescence, at least three independent experiments, read-out: Half-maximum effective concentration (EC50); for Response in functional assay (words): HalhaCAPA-R, Sf9 cells, concentration-response
Method: as §1, §2, §4

HalhaPK-R3b [5] = assay: Concentration-response, calcium mobilization (FLIPR Calcium 6) in Sf9 cells expressing HalhaPK-R3b; conditions: for pEC50: HalhaPK-R3b in Sf9 cells, intracellular calcium, FLIPR Calcium 6 fluorescence, at least three independent experiments, read-out: Half-maximum effective concentration (EC50); for Response in functional assay (words): HalhaPK-R3b, Sf9 cells, concentration-response
Method: as §1, §2, §4

HalhaPK-R2 [6] = assay: Initial screening at 500 nM, Sf9 cells expressing HalhaPK-R2; conditions: three independent experiments
Method: as §1, with “Each transfected cell line was cultured in the presence of 20 μg/mL blasticidin for ∼3 weeks until a blasticidin-resistant cell line was established, after which the blasticidin concentration was reduced to 10 μg/mL and the cell lines were frozen prior to testing in functional assays.” left out
(§5) For each cell line expressing a specific H. halys PRXamide receptor, cells were thawed and cultured for at least three passages in a suspension culture containing blasticidin prior to functional assays. […] Plates were incubated at room temperature for 60 min then transferred to a FlexStation 3 Multi-Mode Microplate Reader (Molecular Devices) to measure cell fluorescence intensity from intracellular calcium influx after peptide-induced receptor activation. Wells of cells were then treated with 5 μL of water or 20X concentrations of each peptide using the automated injection system of the FlexStation plate reader. In all experiments, fluorescence was measured every 5 s for 30 s prior to treatment and for 2 min after exposure. […]

HalhaPK-R1b [7] = assay: Initial screening at 500 nM, Sf9 cells expressing HalhaPK-R1b; conditions: three independent experiments
Method: as §1, with “Each transfected cell line was cultured in the presence of 20 μg/mL blasticidin for ∼3 weeks until a blasticidin-resistant cell line was established, after which the blasticidin concentration was reduced to 10 μg/mL and the cell lines were frozen prior to testing in functional assays.” left out
as §5

HalhaPK-R1a [8] = assay: Initial screening at 500 nM, Sf9 cells expressing HalhaPK-R1a; conditions: three independent experiments
Method: as §1, with “Each transfected cell line was cultured in the presence of 20 μg/mL blasticidin for ∼3 weeks until a blasticidin-resistant cell line was established, after which the blasticidin concentration was reduced to 10 μg/mL and the cell lines were frozen prior to testing in functional assays.” left out
as §5

HalhaPK-R3b [9] = assay: Initial screening at 500 nM, Sf9 cells expressing HalhaPK-R3b; conditions: three independent experiments
Method: as §1, with “Each transfected cell line was cultured in the presence of 20 μg/mL blasticidin for ∼3 weeks until a blasticidin-resistant cell line was established, after which the blasticidin concentration was reduced to 10 μg/mL and the cell lines were frozen prior to testing in functional assays.” left out
as §5

HalhaPK-R3a [10] = assay: Initial screening at 500 nM, Sf9 cells expressing HalhaPK-R3a; conditions: three independent experiments
Method: as §1, with “Each transfected cell line was cultured in the presence of 20 μg/mL blasticidin for ∼3 weeks until a blasticidin-resistant cell line was established, after which the blasticidin concentration was reduced to 10 μg/mL and the cell lines were frozen prior to testing in functional assays.” left out
as §5

| pEC50 (HalhaPK-R1b [1]) | pEC50 (HalhaPK-R1a [2]) | pEC50 (HalhaPK-R2 [3]) | pEC50 (HalhaPK-R3a [4]) | pEC50 (HalhaCAPA-R) | pEC50 (HalhaPK-R3b [5]) | Compound | Response in functional assay (words) (HalhaCAPA-R) | Ligand-induced receptor activation (response in words) (HalhaPK-R2 [6]) | Ligand-induced receptor activation (response in words) (HalhaPK-R1b [7]) | Ligand-induced receptor activation (response in words) (HalhaPK-R1a [8]) | Ligand-induced receptor activation (response in words) (HalhaPK-R3b [9]) | Ligand-induced receptor activation (response in words) (HalhaPK-R3a [10]) | Response in functional assay (words) (HalhaPK-R3a [4]) | further results |
| --- | --- | --- | --- | --- | --- | --- | --- | --- | --- | --- | --- | --- | --- | --- |
| < 6.00 | < 6.00 | < 6.00 | < 6.00 | 7.10 | < 6.00 | CC(C)C[C@H](NC(=O)CNC(=O)[C@H](C)NC(=O)[C@@H](N)CC(=O)O)C(=O)N[C@@H](Cc1ccccc1)C(=O)N1CCC[C@H]1C(=O)N[C@@H](Cc1ccccc1)C(=O)N1CCC[C@H]1C(=O)N[C@@H](CCCNC(=N)N)C(=O)N[C@H](C(N)=O)C(C)C [CAPA-PVK1] | responded specifically to PVK1 and PVK2 peptides; also recorded: concentration-dependent response to PVK1 and PVK2 (Figure 2), with similar sensitivity and degree of absolute magnitude | – | – | – | – | – | – | – |
| < 6.00 | < 6.00 | < 6.00 | < 6.00 | 7.24 | < 6.00 | CC[C@H](C)[C@H](NC(=O)[C@H](CC(C)C)NC(=O)[C@H](CCC(N)=O)NC(=O)[C@@H](N)CCC(=O)O)C(=O)N1CCC[C@H]1C(=O)N[C@@H](Cc1ccccc1)C(=O)N1CCC[C@H]1C(=O)N[C@@H](CCCNC(=N)N)C(=O)N[C@H](C(N)=O)C(C)C [CAPA-PVK2] | responded specifically to PVK1 and PVK2 peptides; also recorded: concentration-dependent response to PVK1 and PVK2 (Figure 2), with similar sensitivity and degree of absolute magnitude | – | – | – | – | – | – | – |
| 6.38 | < 6.00 | 7.46 | 6.70 | < 6.00 | 6.85 | FYAPFSPRL-NH2 [PBAN/PK2] | – | responded to PK2 and CAPA-DH peptides to varying degrees | responded to PK2 and CAPA-DH peptides to varying degrees | responded to PK2 and CAPA-DH peptides to varying degrees | responded to PK2 and CAPA-DH peptides to varying degrees | responded to PK2 and CAPA-DH peptides to varying degrees | positive concentration-dependent activity | Response in functional assay (words) (HalhaPK-R1b [1]; HalhaPK-R1b, Sf9 cells, concentration-response): positive concentration-dependent activity; also recorded: responded weakly; Response in functional assay (words) (HalhaPK-R1a [2]; HalhaPK-R1a, Sf9 cells, concentration-response): positive concentration-dependent activity; also recorded: responded weakly; Response in functional assay (words) (HalhaPK-R2 [3]): strongest response; also recorded: responded strongly; also recorded: positive concentration-dependent activity; also recorded: much more sensitive to PK2 than the PK1 peptide; Response in functional assay (words) (HalhaPK-R3b [5]): positive concentration-dependent activity; also recorded: strongly responded to both PK1 and PK2 peptides |
| < 6.00 | < 6.00 | 6.10 | 6.18 | < 6.00 | 7.04 | NGASGNGGLWFGPRL-NH2 [CAPA-DH/PK1] | – | responded to PK2 and CAPA-DH peptides to varying degrees | responded to PK2 and CAPA-DH peptides to varying degrees | responded to PK2 and CAPA-DH peptides to varying degrees | responded to PK2 and CAPA-DH peptides to varying degrees | responded to PK2 and CAPA-DH peptides to varying degrees | concentration-dependent responses | Response in functional assay (words) (HalhaPK-R2 [3]; listed as CAPA-DH): concentration-dependent responses; Response in functional assay (words) (HalhaPK-R2 [3]; listed as PK1): moderate response; Response in functional assay (words) (HalhaPK-R3b [5]; listed as CAPA-DH): highest sensitivity to PK1 (= CAPA-DH), especially for HalhaPK-R3b; also recorded: concentration-dependent responses; also recorded: most sensitive to CAPA-DH among the six GPCRs; Response in functional assay (words) (HalhaPK-R3b [5]; listed as PK1): strongest response to PK1; also recorded: strongly responded to both PK1 and PK2 peptides |
